Laboratory results taken from PubChem BioAssay AID2060501 (Molecular Pharmacology Branch, DTP, NCI, 2025).

Tested on: 282377-053-R-J1-PDC complex spheroids, viability
Experiment: Anticancer human tumor 282377-053-R-J1-PDC patient-derived colon adenocarcinoma cell line growth inhibition [GQUAD]
Settings: for IC50: curve of first compound; for viability, T/C: stronger effect = lower value; active = viability on the fitted dose curve at most 10% of control; inactive = the rest
How it was run: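 Tumor cells were grown as complex spheroids with HUVEC endothelial cells and mesenchymal stem cells as stroma. G-quadruplex stabilizers were combined with targeted agents over half-log dilutions from near the clinical Cmax, or from 10 microM.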

[1] = second compound 0.0316 µM, first compound 0.0316 µM
[2] = second compound 0.0316 µM, first compound 0.316 µM
[3] = second compound 0.1 µM, first compound 0.0316 µM
[4] = second compound 0.1 µM, first compound 0.316 µM
[5] = second compound 0.316 µM, first compound 0.0316 µM
[6] = second compound 0.316 µM, first compound 0.316 µM
[7] = second compound 1 µM, first compound 0.0316 µM
[8] = second compound 1 µM, first compound 0.316 µM
[9] = second compound 3.16 µM, first compound 0.0316 µM
[10] = second compound 3.16 µM, first compound 0.316 µM
[11] = second compound 10 µM, first compound 0.0316 µM
[12] = second compound 10 µM, first compound 0.316 µM
[13] = second compound 0.0316 µM, first compound 0.000999 µM
[14] = second compound 0.0316 µM, first compound 0.00316 µM
[15] = second compound 0.0316 µM, first compound 0.00999 µM
[16] = second compound 0.0316 µM, first compound 0.0999 µM
[17] = second compound 0.1 µM, first compound 0.000999 µM
[18] = second compound 0.1 µM, first compound 0.00316 µM
[19] = second compound 0.1 µM, first compound 0.00999 µM
[20] = second compound 0.1 µM, first compound 0.0999 µM
[21] = second compound 0.316 µM, first compound 0.000999 µM
[22] = second compound 0.316 µM, first compound 0.00316 µM
[23] = second compound 0.316 µM, first compound 0.00999 µM
[24] = second compound 0.316 µM, first compound 0.0999 µM
[25] = second compound 1 µM, first compound 0.000999 µM
[26] = second compound 1 µM, first compound 0.00316 µM
[27] = second compound 1 µM, first compound 0.00999 µM
[28] = second compound 1 µM, first compound 0.0999 µM
[29] = second compound 3.16 µM, first compound 0.000999 µM
[30] = second compound 3.16 µM, first compound 0.00316 µM
[31] = second compound 3.16 µM, first compound 0.00999 µM
[32] = second compound 3.16 µM, first compound 0.0999 µM
[33] = second compound 10 µM, first compound 0.000999 µM
[34] = second compound 10 µM, first compound 0.00316 µM
[35] = second compound 10 µM, first compound 0.00999 µM
[36] = second compound 10 µM, first compound 0.0999 µM
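Also: spheroids exposed to compounds for 7 days before readout.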
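For viability, T/C in this document: percent of vehicle DMSO control viability with 100% = untreated-like growth.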

CC(=O)O[C@H]1C(=O)[C@@]2(C)[C@H]([C@H](OC(=O)c3ccccc3)[C@]3(O)C[C@H](OC(=O)[C@H](O)[C@@H](NC(=O)c4ccccc4)c4ccccc4)C(C)=C1C3(C)C)[C@]1(OC(C)=O)CO[C@@H]1C[C@@H]2O + Cc1cnc(CNC(=O)c2c(=O)c3ccc(N4CCCN(C)CC4)nc3n3c2sc2ccccc23)cn1
< 0.0316 µM: IC50 (second compound 0.0316 µM) | IC50 (second compound 0.1 µM) | IC50 (second compound 0.316 µM) | IC50 (second compound 1 µM) | IC50 (second compound 3.16 µM) | IC50 (second compound 10 µM)
inactive: viability, T/C [1] 42.7% | viability, T/C (second compound 0.0316 µM, first compound 0.1 µM) 17.2% | viability, T/C [2] 21.4% | viability, T/C (second compound 0.0316 µM, first compound 1 µM) 18.4% | viability, T/C (second compound 0.0316 µM, first compound 3.16 µM) 20.4% | viability, T/C (second compound 0.0316 µM, first compound 10 µM) 24.9% | viability, T/C [3] 44.1% | viability, T/C (second compound 0.1 µM, first compound 0.1 µM) 22.9% | viability, T/C [4] 23.9% | viability, T/C (second compound 0.1 µM, first compound 1 µM) 21.6% | viability, T/C (second compound 0.1 µM, first compound 3.16 µM) 26.1% | viability, T/C (second compound 0.1 µM, first compound 10 µM) 27.9% | viability, T/C [5] 47.7% | viability, T/C (second compound 0.316 µM, first compound 0.1 µM) 24.4% | viability, T/C [6] 24.9% | viability, T/C (second compound 0.316 µM, first compound 1 µM) 31.5% | viability, T/C (second compound 0.316 µM, first compound 3.16 µM) 33.7% | viability, T/C (second compound 0.316 µM, first compound 10 µM) 33.9% | viability, T/C [7] 38.1% | viability, T/C (second compound 1 µM, first compound 0.1 µM) 26.6% | viability, T/C [8] 24.6% | viability, T/C (second compound 1 µM, first compound 1 µM) 32.1% | viability, T/C (second compound 1 µM, first compound 3.16 µM) 35.2% | viability, T/C (second compound 1 µM, first compound 10 µM) 31.4% | viability, T/C [9] 37.8% | viability, T/C (second compound 3.16 µM, first compound 0.1 µM) 23.8% | viability, T/C [10] 29.8% | viability, T/C (second compound 3.16 µM, first compound 1 µM) 25.2% | viability, T/C (second compound 3.16 µM, first compound 3.16 µM) 28.4% | viability, T/C (second compound 3.16 µM, first compound 10 µM) 30.4% | viability, T/C [11] 25.5% | viability, T/C (second compound 10 µM, first compound 0.1 µM) 17% | viability, T/C [12] 23% | viability, T/C (second compound 10 µM, first compound 1 µM) 24.1% | viability, T/C (second compound 10 µM, first compound 3.16 µM) 35.6% | viability, T/C (second compound 10 µM, first compound 10 µM) 18.4%

CC[C@@]1(O)C(=O)OCc2c1cc1n(c2=O)Cc2cc3c(CN(C)C)c(O)ccc3nc2-1 + Cc1cnc(CNC(=O)c2c(=O)c3ccc(N4CCCN(C)CC4)nc3n3c2sc2ccccc23)cn1
< 0.000999 µM: IC50 (second compound 10 µM)
0.115 µM: IC50 (second compound 1 µM)
> 0.316 µM: IC50 (second compound 0.0316 µM) | IC50 (second compound 0.1 µM) | IC50 (second compound 0.316 µM)
inactive: viability, T/C [13] 136% | viability, T/C [14] 115% | viability, T/C [15] 125% | viability, T/C [1] 107% | viability, T/C [16] 79.7% | viability, T/C [2] 66.7% | viability, T/C [17] 110% | viability, T/C [18] 116% | viability, T/C [19] 89.5% | viability, T/C [3] 90.9% | viability, T/C [20] 84.2% | viability, T/C [4] 73.1% | viability, T/C [21] 96.3% | viability, T/C [22] 87.3% | viability, T/C [23] 86.4% | viability, T/C [5] 88.6% | viability, T/C [24] 71% | viability, T/C [6] 57.7% | viability, T/C [25] 72.4% | viability, T/C [26] 66.6% | viability, T/C [27] 58.3% | viability, T/C [7] 50.9% | viability, T/C [28] 53.1% | viability, T/C [8] 47.5% | viability, T/C [29] 54.1% | viability, T/C [30] 56.6% | viability, T/C [31] 50.1% | viability, T/C [9] 41.8% | viability, T/C [32] 51.3% | viability, T/C [10] 47.3% | viability, T/C [33] 46.1% | viability, T/C [34] 50.2% | viability, T/C [35] 49.8% | viability, T/C [11] 49.2% | viability, T/C [36] 43.3% | viability, T/C [12] 48.6%
0.0108 µM: IC50 (second compound 3.16 µM)

CCc1c2c(nc3ccc(O)cc13)-c1cc3c(c(=O)n1C2)COC(=O)[C@]3(O)CC + Cc1cnc(CNC(=O)c2c(=O)c3ccc(N4CCCN(C)CC4)nc3n3c2sc2ccccc23)cn1
0.0248 µM: IC50 (second compound 0.316 µM)
0.0498 µM: IC50 (second compound 0.1 µM)
inactive: viability, T/C [13] 117% | viability, T/C [14] 96.3% | viability, T/C [15] 57.4% | viability, T/C [1] 56.4% | viability, T/C [16] 43.5% | viability, T/C [2] 27.2% | viability, T/C [17] 88.4% | viability, T/C [18] 79.4% | viability, T/C [19] 57.3% | viability, T/C [3] 59.4% | viability, T/C [20] 46.5% | viability, T/C [4] 27.9% | viability, T/C [21] 81.8% | viability, T/C [22] 67.9% | viability, T/C [23] 55% | viability, T/C [5] 51.5% | viability, T/C [24] 38.5% | viability, T/C [6] 28.8% | viability, T/C [25] 66% | viability, T/C [26] 58.1% | viability, T/C [27] 44.4% | viability, T/C [7] 42.9% | viability, T/C [28] 35.9% | viability, T/C [8] 25.1% | viability, T/C [29] 46.6% | viability, T/C [30] 41.5% | viability, T/C [31] 37.5% | viability, T/C [9] 40.9% | viability, T/C [32] 33.4% | viability, T/C [10] 19.4% | viability, T/C [33] 46.6% | viability, T/C [34] 38.4% | viability, T/C [35] 38.9% | viability, T/C [11] 40.9% | viability, T/C [36] 32.6% | viability, T/C [12] 11.1%
0.0369 µM: IC50 (second compound 0.0316 µM)
< 0.000999 µM: IC50 (second compound 3.16 µM) | IC50 (second compound 10 µM)
0.00872 µM: IC50 (second compound 1 µM)
